Test results: US9310353B2, “Method for evaluating bioavailable zinc” (The Procter & Gamble Company, priority 2014, dated 2016)
Marks after values point to notes of the source that are not given here.

Key:
TR146 cells [1] = assay: Screening of Zn indicators by Zn uptake into TR146 cells (FLIPR); format: cell-based; details: Zn indicators screened using TR146 cells
Method: As with most metal ions, the choice of indicator is dependent on the cell type, ion channel, and metal specificity.
(§1) To screen the Zn indicators, measurement of Zn uptake into TR146 cells was done using a FLIPR (Fluorescent Imaging Plate Reader) assay. The assay was established using a cell membrane permeable version of Zn-indicator, FluoZin-3 AM (Life Technologies, Grand Island, N.Y.). TR146 cells were grown to confluency in 15 ml growth medium [high glucose DMEM (Dulbecco's Modification of Eagle's Medium) supplemented with 10% FBS (fetal bovine serum), 100 units/ml penicillin and 100 μg/ml streptomycin in a 75 cm^2 flask for 3 days at 37° C. in a mammalian cell culture incubator set at 5% CO2. […] FluoZin-3 AM is a fluorescent dye used for quantifying intracellular Zn concentrations in the 1 to 100 nM to range. […] The pelleted cells were re-suspended in 10 ml assay buffer and 90 μl aliquots (˜50,000 cells) per well delivered to a 96-well assay plate and the plate was placed into a fluorometric imaging plate reader (FLIPR384 from Molecular Devices, Sunnyvale, Calif.) and basal fluorescence recorded (excitation wave length 494 nm and emission wave length 516 nm). Then Zn salt (for example Zn-lactate) was added and the increase in fluorescence was recorded for 5 minutes. […]

[2] = read-out: Affinity Kd (Zn^2+); cited from earlier work
TR146 cells [3] = assay: Chelant effects on Zn flux via TR146 measurements (FLIPR); format: cell-based; details: relative to the flux of the Zn lactate control; for 5 micro M Chelant Control / 50 micro M Chelant Control: chelant alone, no Zn
From the text: These combinations were then placed into growth media and measurement of Zn uptake into TR146 cells was done using a FLIPR (Fluorescent Imaging Plate Reader) assay, as described in EXAMPLE 2.

TR146 cells [4] = assay: Bioavailability of Zn from formulated dentifrices and rinses, Zn uptake by TR146 cells (FLIPR); format: cell-based; details: 0.01% Dentifrices A-D tested on the TR146 cells; Zn Lactate Control = 100%
Method: as §1, with “Measurement of” for “To screen the Zn indicators, measurement of”, “of Zn dye,” for “of Zn-indicator,”, “grown” for “grown to confluency”, “CO2. Cells were detached with addition of 10 ml of PBS (phosphate buffered saline) and gentle hand shaking, and transferred to a 50 ml tube and centrifuged at 850 rpm for 3 minutes to remove PBS.” for “CO2.”, “plate is” for “plate was”

TR146 cells [5] = assay: Polyquats blocking Zn uptake into TR146 cells (FLIPR); format: cell-based; details: Control Zn lactate
Method: Measurement of Zn uptake into TR146 cells was done using a FLIPR (Fluorescent Imaging Plate Reader) assay. The assay was established using a cell membrane permeable version of Zn dye, FluoZin-3 AM (Life Technologies, Grand Island, N.Y.). TR146 cells were grown in 15 ml growth medium [high glucose DMEM (Dulbecco's Modification of Eagle's Medium) supplemented with 10% FBS (fetal bovine serum), 100 units/ml penicillin and 100 μg/ml streptomycin in a 75 cm^2 flask for 3 days at 37° C. in a mammalian cell culture incubator set at 5% CO2. Cells were detached with addition of 10 ml of PBS (phosphate buffered saline) and gentle hand shaking, and transferred to a 50 ml tube and centrifuged at 850 rpm for 3 minutes to remove PBS. After centrifugation, a pellet of cells was formed in the bottom of the tube separating them from the supernatant solution. The supernatant was discarded and the cell pellet suspended in 1 ml of fresh growth medium to which 5 μl (12.5 μg) of FluoZin-3 AM Zn indicator was added and incubated for 30 minutes with gentle shaking. FluoZin-3 AM is a fluorescent dye used for quantifying intracellular Zn concentrations in the 1 to 100 nM to range. At the end of the 30 minutes, 45 ml of assay buffer [1×HBSS (Hank's Balanced Salt Solution), 20 mM HEPES (4-(2-Hydroxyethyl)-1-piperazineethanesulfonic acid)] was added to wash the cells and the resulting combination was then centrifuged at 850 rpm for 3 minutes to remove excess buffer and FluoZin-3 AM Zn indicator. The pelleted cells were re-suspended in 10 ml assay buffer and 90 μl aliquots (˜50,000 cells) per well delivered to a 96-well assay plate and the plate is placed into a fluorometric imaging plate reader (FLIPR384 from Molecular Devices, Sunnyvale, Calif.) and basal fluorescence recorded (excitation wave length 494 nm and emission wave length 516 nm). Then Zn salt (for example Zn-lactate) was added and the increase in fluorescence was recorded for 5 minutes. Zn-flux observed with different Zn salts with Zn-lactate value as reference (100%) is shown below in TABLE 2. […]

TR146 cells [6] = assay: Effects of cationic polymers and dentifrice binders on uptake of zinc lactate by TR146 cells; format: cell-based; details: 50 μM Zn Lactate alone (reference)
From the text: After centrifugation, a pellet of cells was formed in the bottom of the tube separating them from the supernatant solution.

TR146 cells [7] = assay: Flux of Zn salts in TR146 cells (FLIPR, FluoZin-3 AM); format: cell-based; details: for % of Zn Lactate Flux: Zn-lactate = 100%
Method: Measurement of Zn uptake into TR146 cells was done using a FLIPR (Fluorescent Imaging Plate Reader) assay. The assay was established using a cell membrane permeable version of Zn dye, FluoZin-3 AM (Life Technologies, Grand Island, N.Y.). TR146 cells were grown in 15 ml growth medium [high glucose DMEM (Dulbecco's Modification of Eagle's Medium) supplemented with 10% FBS (fetal bovine serum), 100 units/ml penicillin and 100 μg/ml streptomycin in a 75 cm^2 flask for 3 days at 37° C. in a mammalian cell culture incubator set at 5% CO2. Cells were detached with addition of 10 ml of PBS (phosphate buffered saline) and gentle hand shaking, and transferred to a 50 ml tube and centrifuged at 850 rpm for 3 minutes to remove PBS. After centrifugation, a pellet of cells was formed in the bottom of the tube separating them from the supernatant solution. The supernatant was discarded and the cell pellet suspended in 1 ml of fresh growth medium to which 5 μl (12.5 μg) of FluoZin-3 AM Zn indicator was added and incubated for 30 minutes with gentle shaking. FluoZin-3 AM is a fluorescent dye used for quantifying intracellular Zn concentrations in the 1 to 100 nM to range. At the end of the 30 minutes, 45 ml of assay buffer [1×HBSS (Hank's Balanced Salt Solution), 20 mM HEPES (4-(2-Hydroxyethyl)-1-piperazineethanesulfonic acid)] was added to wash the cells and the resulting combination was then centrifuged at 850 rpm for 3 minutes to remove excess buffer and FluoZin-3 AM Zn indicator. The pelleted cells were re-suspended in 10 ml assay buffer and 90 μl aliquots (˜50,000 cells) per well delivered to a 96-well assay plate and the plate is placed into a fluorometric imaging plate reader (FLIPR384 from Molecular Devices, Sunnyvale, Calif.) and basal fluorescence recorded (excitation wave length 494 nm and emission wave length 516 nm). Then Zn salt (for example Zn-lactate) was added and the increase in fluorescence was recorded for 5 minutes. Zn-flux observed with different Zn salts with Zn-lactate value as reference (100%) is shown below in TABLE 2.

TR146 cells [8] = assay: Competitive inhibition of Zn flux from zinc chloride by amine polymers in TR146 cells; format: cell-based; details: ZnCl2 140 uM alone (reference)
Method: as §1, with “Measurement of” for “To screen the Zn indicators, measurement of”, “of Zn dye,” for “of Zn-indicator,”, “grown” for “grown to confluency”, “CO2. Cells were detached with addition of 10 ml of PBS (phosphate buffered saline) and gentle hand shaking, and transferred to a 50 ml tube and centrifuged at 850 rpm for 3 minutes to remove PBS.” for “CO2.”, “plate is” for “plate was”

[9] = Zn salt concentration Saturated

Compound: COc1ccc(N(CC(=O)O)CC(=O)O)c(OCCOc2cc(-c3c4cc(F)c(=O)cc-4oc4cc(O)c(F)cc34)ccc2NCC(=O)O)c1 [FluoZin-3]
- affinity for the flux of Zn into the TR146 cell line (TR146 cells [1]): most affinity for the flux of Zn into the TR146 cell line
- Kd [2]: 15 nM

Compound: O=P(O)(O)O[C@H]1[C@H](OP(=O)(O)O)[C@@H](OP(=O)(O)O)[C@H](OP(=O)(O)O)[C@@H](OP(=O)(O)O)[C@H]1OP(=O)(O)O [Phytic acid]
- 5 micro M Chelant Control (TR146 cells [3]): 0.00%
- 50 micro M Chelant Control (TR146 cells [3]): 0.00%
- Zn flux, 5 micro M Chelant + 5 micro M Zn lactate (TR146 cells [3]): 20.07%
- Zn flux, 50 micro M Chelant + 50 micro M Zn lactate (TR146 cells [3]): 33.87%

Compound: O=C([O-])[C@H](O)[C@@H](O)[C@H](O)[C@H](O)CO.[Na+] [Sodium D-gluconate]
- 5 micro M Chelant Control (TR146 cells [3]): 1.51%
- 50 micro M Chelant Control (TR146 cells [3]): 0.00%
- Zn flux, 5 micro M Chelant + 5 micro M Zn lactate (TR146 cells [3]): 101.31%
- Zn flux, 50 micro M Chelant + 50 micro M Zn lactate (TR146 cells [3]): 112.99%

Compound: O=P1([O-])OP(=O)([O-])OP(=O)([O-])OP(=O)([O-])OP(=O)([O-])OP(=O)([O-])O1.[Na+].[Na+].[Na+].[Na+].[Na+].[Na+] [Sodium Hexametaphosphate]
- 50 micro M Chelant Control (TR146 cells [3]): 0.00%
- Zn flux, 5 micro M Chelant + 5 micro M Zn lactate (TR146 cells [3]): 105.02%
- Zn flux, 50 micro M Chelant + 50 micro M Zn lactate (TR146 cells [3]): 63.81%*

Compound: O=P([O-])(O)OP(=O)([O-])O.[Na+].[Na+] [Sodium acid pyrophosphate]
- 5 micro M Chelant Control (TR146 cells [3]): 0.00%
- 50 micro M Chelant Control (TR146 cells [3]): 0.00%
- Zn flux, 5 micro M Chelant + 5 micro M Zn lactate (TR146 cells [3]): 82.87%
- Zn flux, 50 micro M Chelant + 50 micro M Zn lactate (TR146 cells [3]): 0.00%
- Zn flux, 50 micro M Chelant + 50 micro M Zn lactate (TR146 cells [3]; listed as sodium acid pyrophosphate): did not allow for any measureable levels of Zn to be detected

Compound: O=C([O-])CC(O)(CC(=O)[O-])C(=O)[O-].[Na+].[Na+].[Na+] [Sodium citrate]
- 5 micro M Chelant Control (TR146 cells [3]): 0.00%
- 50 micro M Chelant Control (TR146 cells [3]): 0.00%
- Zn flux, 5 micro M Chelant + 5 micro M Zn lactate (TR146 cells [3]): 104.83%
- Zn flux, 50 micro M Chelant + 50 micro M Zn lactate (TR146 cells [3]): 43.63%

Compound: O=P(O)(O)OP(=O)(O)OP(=O)(O)O [Sodium tripolyphosphate]
- 5 micro M Chelant Control (TR146 cells [3]): 0.00%
- 50 micro M Chelant Control (TR146 cells [3]): 0.00%
- Zn flux, 5 micro M Chelant + 5 micro M Zn lactate (TR146 cells [3]): 92.99%
- Zn flux, 50 micro M Chelant + 50 micro M Zn lactate (TR146 cells [3]): 0.00%
- Zn flux, 50 micro M Chelant + 50 micro M Zn lactate (TR146 cells [3]; listed as sodium tripolyphosphate): did not allow for any measureable levels of Zn to be detected

Compound: CC(O)C(=O)[O-].CC(O)C(=O)[O-].[Zn+2] (centres unmarked) [Zn Lactate]
- % of Zn Lactate Control (% Zn uptake by TR146 cells) (TR146 cells [4]): 100%
- Zn flux, Zn Only (TR146 cells [3]; No chelant, 50 micro M Zn Lactate): 100%*
- Fluorescent Counts with no Zn (TR146 cells [5]; no quat): 24.5
- Fluorescent counts with Zn (TR146 cells [5]; no quat): 1774.8
- % Reduction compared to Zn control (TR146 cells [5]; no quat (reference)): 0%
- Fluorescence Units (percentage of zinc lactate) (TR146 cells [6]): 100%

Compound: CC(=O)[O-].CC(=O)[O-].[Zn+2] [ZnAcetate]
- Fluorescence Unit (TR146 cells [7]; Zn salt concentration 10 uM): 48547.79
- % of Zn Lactate Flux (TR146 cells [7]; Zn salt concentration 10 uM): 102.72%

Compound: [Cl-].[Cl-].[Zn+2] [ZnCl2]
- Fluorescence Unit (TR146 cells [7]; Zn salt concentration 1 mM): 47853.41
- % of Zn Lactate Flux (TR146 cells [7]; Zn salt concentration 1 mM): 101.25%
- Zn Flux as a percentage of the Zn Chloride Control (TR146 cells [8]): 100%

Compound: NCC(=O)[O-].NCC(=O)[O-].[Zn+2] [ZnGlycinate]
- Fluorescence Unit (TR146 cells [7]; Zn salt concentration 4.40%): 41086.61
- % of Zn Lactate Flux (TR146 cells [7]; Zn salt concentration 4.40% (206 mM)): 86.93%

Compound: O=C([O-])C(=O)[O-].[Zn+2] [ZnOxalate]
- Fluorescence Unit (TR146 cells [7]; [9]): 55389.93
- % of Zn Lactate Flux (TR146 cells [7]; [9]): 117.2%

Compound: [O-2].[Zn+2] [ZnOxide]
- Fluorescence Unit (TR146 cells [7]; [9]): 50391.21
- % of Zn Lactate Flux (TR146 cells [7]; [9]): 106.62%

Compound: O=P([O-])([O-])[O-].O=P([O-])([O-])[O-].[Zn+2].[Zn+2].[Zn+2] [ZnPhosphate]
- Fluorescence Unit (TR146 cells [7]; [9]): 49686.65
- % of Zn Lactate Flux (TR146 cells [7]; [9]): 105.13%

Compound: [O-][n+]1ccccc1[S-].[O-][n+]1ccccc1[S-].[Zn+2] [ZnPyrithione]
- Fluorescence Unit (TR146 cells [7]; Zn salt concentration 10 mM): 50467.87
- % of Zn Lactate Flux (TR146 cells [7]; Zn salt concentration 10 mM): 106.78%

Compound: O=S(=O)([O-])[O-].[Zn+2] [ZnSO4]
- Fluorescence Unit (TR146 cells [7]; Zn salt concentration 1 mM): 47853.41
- % of Zn Lactate Flux (TR146 cells [7]; Zn salt concentration 1 mM): 101.25%
